Molecules are shown by their SMILES.

What is called EC50 is the concentration needed to bring the measured effect to its halfway point. A higher EC50 goes with a need for much substance.

This assay deals with Vaccinia virus. As to the kind of experiment: Antiviral activity against vaccinia virus Copenhagen measured as cytopathogenicity in HFF cells. Type of assay: functional, organism-based. As to conditions: Orthopoxvirus vaccinia.
`O=Cc1cn([C@H]2C[C@H](O)[C@@H](CO)O2)c(=O)[nH]c1=O` registered an EC50 of more than 300 µM.

The compound `CC(=O)OC[C@H]1OC(n2cc(C=O)c(=O)[nH]c2=O)C[C@@H]1OC(C)=O` (some centres not stated) registered an EC50 of more than 300 µM.

As for `O=c1[nH]c(=O)n(C2CC(O)[C@@H](CO)O2)cc1C1OCCCO1` (single isomer, unassigned), the EC50 is more than 300 µM.

Take `CCOC(OCC)c1cn(C2C[C@H](OC(C)=O)[C@@H](COC(C)=O)O2)c(=O)[nH]c1=O` (some centres not stated): the EC50 is 38 µM.

In the case of `CCOC(OCC)c1cn(C2C[C@H](O)[C@@H](CO)O2)c(=O)[nH]c1=O` (some centres not stated), the EC50 was more than 60 µM.

On to `COC(OC)c1cn(C2C[C@H](O)[C@@H](CO)O2)c(=O)[nH]c1=O` (some centres not stated), for which the midpoint of the response, the EC50, lay at 8.4 µM.

`Nc1ccn(C[C@@H](CO)OCP(=O)(O)O)c(=O)n1` [CIDOFOVIR] yielded an EC50 of 6.9 µM.

Compound `CC(=O)OC[C@H]1OC(n2cc(C3OCCCO3)c(=O)[nH]c2=O)C[C@@H]1OC(C)=O` (some centres not stated) gave an EC50 of more than 300 µM.

Compound `COC(OC)c1cnc(O)nc1O` came in with an EC50 of more than 300 µM.

For `O=c1[nH]c(=O)n(C2CC(O)[C@@H](CO)O2)cc1C1OCCO1` (single isomer, unassigned), the EC50 is more than 300 µM.

`CC(=O)OC[C@H]1OC(n2cc(C3OCCO3)c(=O)[nH]c2=O)C[C@@H]1OC(C)=O` (some centres not stated) gave an EC50 of more than 300 µM.

For `COC(OC)c1cn(C2C[C@H](OC(C)=O)[C@@H](COC(C)=O)O2)c(=O)[nH]c1=O` (some centres not stated), the EC50 amounted to 296 µM.

The values are drawn from ChEMBL document CHEMBL1148520, “5-(Dimethoxymethyl)-2'-deoxyuridine: a novel gem diether nucleoside with anti-orthopoxvirus activity” (J Med Chem, 2006).
